In one assay the test system is follicular lymphoma. Briefly: Phase 1/2 clinical study, follicular lymphoma patients. The conditions noted are these: among 8 efficacy-evaluable patients. It counts as in vivo, human. An excerpt:
(§1) The study is an open-label, multi-center study of oral BTK-I to evaluate safety and efficacy as monotherapy and as part of combination therapy in patients with CLL/SLL and NHL who have failed or are intolerant to standard of care. This study includes monotherapy as well as combination treatment parts. The monotherapy part includes Phase 1 dose escalation and dose expansion as well as Phase 2. The combination therapy part is a Phase 1b (safety assessment and expansion) of BTK-I in combination with venetoclax, with or without anti-CD20 therapy. Phase 1 dose escalation will proceed prior to start of Phase 1b or Phase 2. Once a recommended Phase 2 dose (RP2D) is identified in Phase 1, enrollment can commence to the Phase 1b combination therapies and Phase 2 monotherapy cohorts. […]
(§2) The primary objective of the Phase 2 is to assess the primary anti-tumor activity of BTK-I based on overall response rate (ORR) and as assessed by the Independent Review Committee. […]
(§3) Dosing during Phase 2 will be at the RP2D of 200 mg QD. […] The dose (and schedule) chosen for Phase 2 may be changed by the SRC based on emerging data (e.g., PK, safety, and/or efficacy) as long as the new dose is not greater than the highest dose that has a DLT <33% and is determined to be safe by the SRC in Phase 1. […]

In a further assay the test system is DLBCL. Put plainly: Phase 1/2 clinical study, DLBCL patients. It counts as in vivo, human.
Excerpt: as §1, §2, §3

For a further assay, the system named is TMD8 BTK WT cells. Briefly: In vivo mouse xenograft study, TMD8 BTK WT. On the set-up: species or system mice. The settings on record: BTK-I BID alone; BTK WT driven TMD8 (DLBCL) xenograft. How it is done: In all studies, test articles are administered alone and in combination, following different dosing regimens.
Human TMD8 BTK WT, TMD8 BTK C481S or REC-1 cells are injected subcutaneously in the right flank of mice. When tumors reach a mean volume between 150 mm^3 and 400 mm^3, mice are randomized based on their tumor volumes. Mice are next dosed for 14 to 23 days depending on the study design. The potencies of the compounds stand-alone or in combination on the inhibition of the tumor growth are assessed based on the tumor volume changes and weights after collection at the end of the study. Additionally, in the TMD8 studies, the plasma concentrations of test articles are measured at multiple time points after the last dose.

The next assay has as its system Richter's transformation. Put plainly: Phase 1/2 clinical study, Richter's transformation patients. It counts as in vivo, human. The conditions noted are these: 6 of 8 patients.
Excerpt: as §1, §2, §3

The test system of another assay is CLL/SLL and B-cell NHL. Briefly: Phase 1/2 clinical study of oral BTK-I monotherapy, all patients. It counts as in vivo, human.
Excerpt: The study is an open-label, multi-center study of oral BTK-I to evaluate safety and efficacy as monotherapy and as part of combination therapy in patients with CLL/SLL and NHL who have failed or are intolerant to standard of care. This study includes monotherapy as well as combination treatment parts. The monotherapy part includes Phase 1 dose escalation and dose expansion as well as Phase 2. The combination therapy part is a Phase 1b (safety assessment and expansion) of BTK-I in combination with venetoclax, with or without anti-CD20 therapy. Phase 1 dose escalation will proceed prior to start of Phase 1b or Phase 2. Once a recommended Phase 2 dose (RP2D) is identified in Phase 1, enrollment can commence to the Phase 1b combination therapies and Phase 2 monotherapy cohorts.
The primary objectives of the Phase 1 Dose Escalation and Expansion part of the study is to determine the maximum tolerated dose (MTD)/RP2D of oral BTK-I in patients with previously treated CLL/SLL and B-cell NHL.
Patients are enrolled with histologically confirmed CLL/SLL or B-cell NHL who have failed or are intolerant to at least two prior standard of care regimens given in combination or sequentially or have received at least one prior BTK inhibitor-containing regimen when BTK inhibitor is approved in first line.
BTK-I is administered in oral tablet form. Dose escalation will follow a 3+3 design starting with a 25 mg QD dose (followed by 50 mg QD (dose level cohort 2), 100 mg QD (dose level cohort 3), 150 mg QD (dose level cohort 4), 200 mg QD (dose level cohort 5), 250 mg QD (dose level cohort 6), and 300 mg QD (dose level cohort 7)). Cycle length will be 28 days. The drug limiting toxicity (DLT) period will be 28 days, commencing with the first dose of BTK-I.
as §2, §3

The next assay deals with T1, BTK wild type (Homo sapiens, UniProt Q06187).
T1 construct: expressed in transfected cells
Put plainly: BTK Y223 autophosphorylation in HEK293 cells expressing BTK wild type. It counts as cell-based. The settings on record: for IC90: HEK293, wild type BTK. As to the method:
HEK293 cell lines stably expressing BTK wild type and the mutant form C481S are generated using standard transfection methods. For assessment of cellular inhibition potency, cells are grown in DMEM+10% FBS+1 μg/mL puromycin (complete growth media) at 37° C. in a C02 incubator. Cells are harvested according to standard protocols using TrypLE (Gibco #12604-013), counted, resuspended in complete growth media, and added to 6 well assay plates at […] in 2 mL. Plates are incubated overnight at 37° C. with 5% C02. The following day, cells are treated for 2 hours with BTK-I, prepared as a 6-point dose curve, 1:3 dilution series with final concentrations starting at a maximum concentration of 300 nM and a constant DMSO concentration of 0.5% (v/v). Control wells contain 0.5% (v/v) DMSO alone (no inhibition control). All samples are tested in triplicate. Following compound incubation, growth medium is discarded, cells are washed with DPBS (1×) (Gibco #14190-144) and lysed in 1 mL of CelLytic™ M (Sigma #C2978) containing 1× Halt phosphatase and protease inhibitor cocktails (Pierce #78442). Plates are placed on ice for 1 hour with gentle agitation and stored at −80° C. overnight. The next day, cell lysates are placed in 1.5 mL tubes and cleared by centrifugation at 16,000×g for 10 minutes at 4° C. Supernatants are quantified by BCA (Pierce #23225) and stored at −80° C. Samples are analyzed by Simple Western (Protein Simple) with anti-phospho-BTK (Y223) (Cell signaling technologies (cst) #5082) and anti-BTK (cst #8547). β-actin is the used as a loading control and detected by regular Western blot with an anti-β-actin antibody (cst #4970). Simple Western results are analyzed with Compass software (Protein Simple). BTK Y223 phosphorylation signal is normalized to total BTK, and IC50 values are calculated using a 4-parameter fit in GraphPad Prism 7.04 software.

We go through 1 compound from patent publication US12551463B2, “Dosing of a Bruton's tyrosine kinase inhibitor” (Loxo Oncology, Inc., priority 2019, dated 2026).

Entries after “also recorded” stand apart in the source; their conditions may differ. Where two headings read alike, the source gives them in different places.

T1 sequence (Q06187 whole entry): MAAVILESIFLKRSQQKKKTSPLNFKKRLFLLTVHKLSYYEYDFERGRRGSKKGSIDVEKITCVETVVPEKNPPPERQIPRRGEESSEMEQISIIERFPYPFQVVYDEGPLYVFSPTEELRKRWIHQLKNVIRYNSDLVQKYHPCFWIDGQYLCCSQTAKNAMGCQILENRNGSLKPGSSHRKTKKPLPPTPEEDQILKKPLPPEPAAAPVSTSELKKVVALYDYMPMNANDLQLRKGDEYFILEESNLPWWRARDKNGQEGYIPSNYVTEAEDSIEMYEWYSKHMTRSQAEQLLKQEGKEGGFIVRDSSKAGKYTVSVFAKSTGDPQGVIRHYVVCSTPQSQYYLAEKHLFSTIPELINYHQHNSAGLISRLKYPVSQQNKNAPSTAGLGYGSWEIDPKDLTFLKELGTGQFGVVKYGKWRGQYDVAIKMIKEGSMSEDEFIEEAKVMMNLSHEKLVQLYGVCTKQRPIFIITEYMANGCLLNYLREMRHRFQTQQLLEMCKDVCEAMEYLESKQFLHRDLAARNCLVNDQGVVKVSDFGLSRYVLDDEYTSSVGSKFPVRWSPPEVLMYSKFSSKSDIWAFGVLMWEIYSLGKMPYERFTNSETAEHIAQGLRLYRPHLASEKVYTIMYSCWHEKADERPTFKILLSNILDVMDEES

In general, IC90 refers to the point of the concentration-response curve where the effect stands at 90%. As usually defined, the IC50 is the concentration that inhibits the measured activity by half. Regarding `COc1ccc(F)cc1C(=O)NCc1ccc(-c2nn([C@@H](C)C(F)(F)F)c(N)c2C(N)=O)cc1` [BTK-I, (S)-5-amino-3-(4-((5-fluoro-2-methoxybenzamido)methyl)phenyl)-1-(1,1,1-trifluoropropane-2-yl)-1H-pyrazole-4-carboxamide], in the assay on follicular lymphoma, the patients with responses amounted to 4. Also, in the assay with DLBCL, the responses/patients was 6/25. The “inhibition of xenograft tumor growth” value with TMD8 BTK WT cells was “potently inhibited the growth”. In addition, the responses in the assay with Richter's transformation worked out at 75%. Also, the “responses at first dose level” value in the assay with CLL/SLL and B-cell NHL (25 mg QD) is given as “Responses were observed”. Further, the “clinical activity/efficacy across dose levels” value in the assay with CLL/SLL and B-cell NHL (7 dose levels, 25 mg to 300 mg QD) is “demonstrated activity across all dose levels; also recorded: Efficacy was observed at all dose levels”. For the same compound, the “treated patients remaining on BTK-I” value in the assay on CLL/SLL and B-cell NHL (237 of 323 at data cut) is 73%. In the assay with CLL/SLL and B-cell NHL (remaining 39 patients (other B-cell malignancies)), the “responses in remaining efficacy-evaluable patients” value is listed as 8. The IC90 at BTK wild type (read-out: IC90) is 77.4 nM; at BTK wild type (read-out: IC90 translated to total drug in human plasma), about 0.806 µg/mL. Moreover, the IC50 at BTK wild type (expressed as plasma concentration, read-out: IC50, inhibition of BTK in vitro) amounted to 192 nM.
